Measured values taken from ChEMBL document CHEMBL3045397, “Synthesis and anticonvulsant activity of some new series of pyrrole derivatives” (Med Chem Res, 2012).
The source made the active and inactive calls. The rule behind the calls is not given here.

How the values were obtained:
[1] = system: Rattus norvegicus; test: Toxicity in SwissRattus norvegicus albino (rat) up to 10 mg/kg, ip measured for 24 hr; type: organism-based, Swiss albino; set-up: dose 10 mg/kg, route intraperitoneal; conditions: in vivo
[2] = system: Rattus norvegicus; test: Anticonvulsant activity in SwissRattus norvegicus albino (rat) assessed as protection against pentamethylene tetrazole-induced seizures at 10 mg/kg, ip administered for 15 min prior to pentamethylene tetrazole induction relative to placebo; type: functional, Swiss albino
[3] = system: Rattus norvegicus; test: Anticonvulsant activity in SwissRattus norvegicus albino (rat) assessed as protection against pentamethylene tetrazole-induced seizures at 5 mg/kg, ip administered for 15 min prior to pentamethylene tetrazole induction relative to placebo; type: functional

Row | SMILES | Activity [1] | Activity ([2]; route intraperitoneal) [%] | Activity ([3]; Swiss albino) | Activity ([2]; Swiss albino) | Activity ([3]; route intraperitoneal) [%]
1 | O=C1NC(=O)C(c2ccccc2)(c2ccccc2)N1 [PHENYTOIN] | Non-toxic | 98 |  |  | 
2 | CCOC(=O)c1[nH]c(/C=C/c2ccc(OC)cc2)c(C(=O)OCC)c1C |  |  | inactive | inactive | 
3 | CCOC(=O)c1[nH]c(/C=C/c2ccc(O)cc2)c(C(=O)OCC)c1C |  |  | inactive | inactive | 
4 | Cc1c(C(=O)NNC(N)=S)[nH]c(/C=C/c2ccc(Cl)cc2)c1C(=O)NNC(N)=S | Non-toxic | 48 |  |  | 19
5 | CCOC(=O)c1[nH]c(/C=C/c2ccc(N(C)C)cc2)c(C(=O)OCC)c1C |  |  | inactive | inactive | 
6 | COc1ccc(/C=C/c2[nH]c(C(=O)NNC(N)=S)c(C)c2C(=O)NNC(N)=S)cc1 | Non-toxic | 0 |  |  | 0
7 | CCOC(=O)c1[nH]c(/C=C/c2ccc(Cl)cc2)c(C(=O)OCC)c1C |  |  | inactive | inactive | 
8 | Cc1c(C(=O)NNC(N)=S)[nH]c(/C=C/c2ccccc2)c1C(=O)NNC(N)=S | Non-toxic | 66 |  |  | 33
9 | CCOC(=O)c1[nH]c(/C=C/c2ccccc2)c(C(=O)OCC)c1C |  |  | inactive | inactive | 
10 | Cc1c(C(=O)NNC(N)=S)[nH]c(/C=C/c2ccc([N+](=O)[O-])cc2)c1C(=O)NNC(N)=S | Non-toxic | 0 |  |  | 0
11 | Cc1c(C(=O)NNC(N)=S)[nH]c(/C=C/c2ccc(O)cc2)c1C(=O)NNC(N)=S | Non-toxic | 0 |  |  | 0
12 | CCOC(=O)c1[nH]c(/C=C/c2ccc([N+](=O)[O-])cc2)c(C(=O)OCC)c1C |  |  | inactive | inactive | 
13 | Cc1c(C(=O)NNC(N)=S)[nH]c(/C=C/c2ccc(N(C)C)cc2)c1C(=O)NNC(N)=S | Non-toxic | 46 |  |  | 21
